Measurements taken from patent US6461587B1, “Perfluoroalkylamides, their production and their use in diagnosis” (Schering Aktiengesellschaft, priority 1999, dated 2002).

Columns and labels:
[1] = Relaxivity of compounds according to the invention; format: physicochemical; conditions: 0.47 T and 37° C.
Excerpt: Relaxivity of Compounds According to the Invention

[2] = Compatibility of compounds according to the invention (LD 50); conditions: in vivo
Excerpt: Compatibility of Compounds According to the Invention

[3] = Organ distribution of the contrast medium after s.c. administration; format: in vivo; conditions: guinea pigs, 10 μmol Gd/kg s.c., 7 days after administration
Method: After subcutaneous administration of 10 μmol of total gadolinium/kg of body weight in the hind paw of stimulated guinea pigs (complete Freund adjuvant; 0.1 ml i.m in the right and left lower leg in each case; 2 weeks before the test are administered), the retention of the metal in the […] as in the kidneys and spleen was examined 7 days administration.

[4] = Retention of the opacifying metal at the injection site; format: in vivo; conditions: guinea pig, 10 μmol Gd/kg s.c.
Excerpt: After s.c. administration of 10 μmol of total gadolinium/kg of body weight in the guinea pig paw, the retention of metal at the injection site was studied at different times.

[5] = Lymph node visualization (MRT) after interstitial administration of contrast medium; format: in vivo; conditions: guinea pigs, 10 μmol of Gd/kg s.c., 15 or 30 minutes, T1-weighted gradient echo images
Method: MR images of popliteal, inguinal and iliac lymph nodes both before (Precontrast) and 15 or 30 minutes after subcutaneous administration (guinea pigs, hind paw, interdigital space) of the substance of Example 5e or of Example 3c (in each case 10 μmol of Gd/kg of body weight) were taken.

[6] = Blood level and pharmacokinetics after intravenous administration, in vivo comparison with Dy-DTPA; conditions: rats, i.v. 100 μmol/kg; for Vd ss / α-t½ / β-t½: n=3; for blood concentrations compared with Dy-DTPA: all examination times 1-120 minutes p.i.
Method: Three 350 g male (Schering-SPF) rats are used as test animals. 0.33-0.37 ml (in each case 100 mmol/L) of the following contrast medium solution is administered intravenously to each animal: mixture of 1 part each of a perfluoroalkyl-containing compound and the dysprosium-complex of (Dy-DTPA). The administered dose is in each case 100 μmol of Gd or Dy/kg of body weight. Via a catheter in the common carotid artery, blood samples are taken at the following times: 1, 3, 5, 10, 15, 20, 30, 45, 60, 90, 120 minutes p.i. In the blood samples that are obtained, in each case the concentrations of gadolinium (Gd) and dysprosium (Dy) are measured in parallel using atomic emission spectrometry (ICP-AES). The proportion of the injected compounds (Gd-containing perfluoroalkyl-containing compound and Dy-containing comparison substance) that remains in the blood space can be compared in the same animal by the different labeling. The α- and β-half life, the distribution volume and the total clearance can be calculated from the blood concentrations using special software (Topfit program). […]

[7] = Table 1: plasma, mixture of 5e and Dy-DTPA
[8] = Table 2: plasma, mixture of 4c and Dy-DTPA

Compound	R1 in Plasma [1] [L/mmol/s]	R1 in Water [1] [L/mmol/s]	LD 50 [2]	Gadolinium Content in Kidneys [3]	Gadolinium Content in Liver [3]	Gadolinium Content in Spleen [3]	Gadolinium Content at the Injection Site (Paw) ([4]; 30 min. p.i.)	Gadolinium Content at the Injection Site (Paw) ([4]; 90 min. p.i.)	Gadolinium Content at the Injection Site (Paw) ([4]; 7 days p.i.)	MR signal in popliteal, inguinal and iliac lymph nodes of the injected body side vs non-injected side or precontrast [5]	Vd ss [6, 7] [L/kg]	α-t½ [6, 7] [min]	β-t½ [6, 7] [min]	distribution volume compared to Dy-DTPA [6]	blood concentrations compared with Dy-DTPA [6]	Vd ss [6, 8] [L/kg]	α-t½ [6, 8] [min]	β-t½ [6, 8] [min]
CC(C(=O)NCC(=O)N(CCOCCC(F)(F)C(F)(F)C(F)(F)C(F)(F)C(F)(F)C(F)(F)C(F)(F)C(F)(F)F)CC(O)CO)N1CCN(CC(=O)[O-])CCN(CC(=O)[O-])CCN(CC(=O)[O-])CC1.[Gd+3] (stereo not shown) [Example 2c]	19.6	11.8	3 mmol of Gd/kg of body weight															
CC(C(=O)NCC(=O)NCCOCCC(F)(F)C(F)(F)C(F)(F)C(F)(F)C(F)(F)C(F)(F)C(F)(F)C(F)(F)F)N1CCN(CC(=O)[O-])CCN(CC(=O)[O-])CCN(CC(=O)[O-])CC1.[Gd+3] (stereo not shown) [Example 7, 1,4,7-Tris(carboxylatomethyl)-10-[-(3-aza-4-oxo-hexan-5-ylic)-acid-N-(1H,1H,2H,2H,4H,4H,5H,5H-3-oxa-perfluorotridecyl)-amide]-1,4,7, 10-tetraaza-cyclododecane, gadolinium complex]	21.0	18.1		0.2% of dose	6.2% of dose	0.0% of dose	54.2% of dose	36.8% of dose	1.3% of dose									
CC(C(=O)NCC(=O)NCCNS(=O)(=O)C(F)(F)C(F)(F)C(F)(F)C(F)(F)C(F)(F)C(F)(F)C(F)(F)C(F)(F)F)N1CCN(CC(=O)[O-])CCN(CC(=O)[O-])CCN(CC(=O)[O-])CC1.[Gd+3] (stereo not shown) [Example 10c, 1,4,7-Tris(carboxylatomethyl)-10-{(3-aza-4-oxo-hexan-5-ylic)-acid-N-[(2-perfluorooctylsulfonylamino)-ethyl]-amide}-1,4,7,10-tetraazacyclododecane, gadolinium complex]	27.8	21.6																
COCCOCCOCCOCCOCCN(CCOCCC(F)(F)C(F)(F)C(F)(F)C(F)(F)C(F)(F)C(F)(F)C(F)(F)C(F)(F)F)C(=O)CNC(=O)C(C)N1CCN(CC(=O)[O-])CCN(CC(=O)[O-])CCN(CC(=O)[O-])CC1.[Gd+3] (stereo not shown) [Example 5e]	30.3	12.4	15 mmol of Gd/kg of body weight				8.5% of dose	9.4% of dose		strong signal increase	0.16 ± 0.03	3.77 ± 0.75	102.29 ± 24.48	significantly smaller distribution volume	significantly higher blood concentrations			
CC(C(=O)NCC(=O)N(CCO)CCOCCC(F)(F)C(F)(F)C(F)(F)C(F)(F)C(F)(F)C(F)(F)C(F)(F)C(F)(F)F)N1CCN(CC(=O)[O-])CCN(CC(=O)[O-])CCN(CC(=O)[O-])CC1.[Gd+3] (stereo not shown) [Example 4c]	21.9	14.4	0.3 mmol of Gd/kg of body weight											significantly smaller distribution volume	significantly higher blood concentrations	0.12 ± 0.00	1.01 ± 0.32	79.68 ± 12.26
COCCN(CCOCCC(F)(F)C(F)(F)C(F)(F)C(F)(F)C(F)(F)C(F)(F)C(F)(F)C(F)(F)F)C(=O)CNC(=O)C(C)N1CCN(CC(=O)[O-])CCN(CC(=O)[O-])CCN(CC(=O)[O-])CC1.[Gd+3] (stereo not shown) [Example 1c]	25.7	13.8																
Dy-DTPA [reference compound]											0.29 ± 0.09	2.19 ± 0.59	62.59 ± 37.47			0.15 ± 0.03	0.89 ± 0.32	21.37 ± 2.18
1,4,7-Tris(carboxylatomethyl)-10-{(3-aza-4-oxo-hexan-5-ylic)-acid- [N-4,7,10,17-tetraoxa-14-aza-17-oxo-C20-C28-hepta-decafluoro)-heptacosyl]-amide}-1,4,7,10-tetraazacyclododecane, gadolinium complex [Example 6b]	13.3	11.6		0.1% of dose	1.5% of dose	0.0% of dose	66.4% of dose	26.1% of dose	0.6% of dose									
CC(C(=O)NCC(=O)N(CCOCCO)CCOCCC(F)(F)C(F)(F)C(F)(F)C(F)(F)C(F)(F)C(F)(F)C(F)(F)C(F)(F)F)N1CCN(CC(=O)[O-])CCN(CC(=O)[O-])CCN(CC(=O)[O-])CC1.[Gd+3] (stereo not shown) [Example 3c]	21.0	14.0	8 mmol of Gd/kg of body weight	0.1% of dose	1.3% of dose	0.0% of dose	6.5% of dose	4.9% of dose	1.7% of dose	strong signal increase								
